The results in this text go back to patent US8293218B2, “Skin care compositions comprising substituted monoamines” (Conopco, Inc., priority 2010, dated 2012).

For this assay, the system named is Melanoderm tissue equivalent model MEL-300 containing melanocytes obtained from dark skin individuals. Put plainly: Melanoderm tissue equivalent model MEL-300, total melanin content (inhibition of melanogenesis). The conditions noted are these: Melanocyte, 336 h; 10 μM in maintenance medium, 14 days, total melanin content vs DMSO vehicle control; read-out: Melanoderm (% Reduction at 10 μM). In kind it is cell-based. As to the method:
Melanoderm tissue equivalent model MEL-300 (MatTek: Ashland, Mass.) containing melanocytes obtained from dark skin individuals were cultured as per supplier instructions. Components were added to the maintenance medium phase (no topical treatments) at a final concentration of 10 μM for 14 days at which time the experiment was terminated and the tissues assessed for melanin content. Medium and treatments were changed three times per week. DMSO was utilized as the vehicle control and all treatments were performed at least in duplicate.
For quantification of total melanin, each Melanoderm was placed into an individual Eppendorf tube (2 mL) into which 250 μL of Solvable™ tissue solubilizer (Packard Bioscience Co., Cat #6NE9100) was added. Each tube was vortexed and incubated at 60° C. for 18 hours. Each sample was then centrifuged (5-minutes at 13,000 RPMs) to remove any particulates. 100 or 200 μL of supernatant were transferred to a 96 well microtiter plate and the absorbance read at 490 nm. Total melanin content was calculated from a standard curve using synthetic melanin (Sigma Cat #M8631). Data was analyzed for significance using the t-test in Microsoft Excel to generate p-values (p-values less than 0.01 represent 99% confidence, p values of 0.05 represent 95% confidence both of which are statistically significant).

For the molecule `COc1ccc(CNCCc2ccccc2)cc1OC` [Compound 3a, N-(3,4-dimethoxybenzyl)-2-phenylethanamine], the inhibition at 10 µM was found to be 40.3%.
The same measure for `COc1ccc(CNCCc2ccccc2)cc1` [Compound 3b, N-(4-methoxybenzyl)-2-phenylethanamine]: 54.4%.
Under `c1ccc(CCNCc2cccc(Oc3ccccc3)c2)cc1` [Compound 3c, N-(3-phenoxybenzyl)-2-phenylethanamine] stands 68.9%; under `COc1ccc(OC)c(CNCCc2ccccc2)c1` [Compound 3d, N-(2,5-dimethoxybenzyl)-2-phenylethanamine], 60.3%.
Under `Cc1ccc(CNCCc2ccccc2)cc1C` [Compound 3e, N-(3,4-dimethylbenzyl)-2-phenylethanamine] stands 64.5%; under `c1ccc(CCNCC2CCCCC2)cc1` [Compound 3f, N-(cyclohexylmethyl)-2-phenylethanamine], 69.5%; under `COc1cc(CNCCc2ccccc2)cc(OC)c1` [Compound 3g, N-(3,5-dimethoxybenzyl)-2-phenylethanamine], 51.6%.
On to `COc1ccc(CCNCCc2ccccc2)cc1OC` [Compound 3h, 2-(3,4-dimethoxyphenyl)-N-phenethylethanamine], for which the inhibition at 10 µM was 53.1%.
Consider `COc1ccc(CN(C)CCc2ccccc2)cc1OC` [Compound 7, N-(3,4-dimethoxybenzyl)-N-methyl-2-phenylethanamine], for which the inhibition at 10 µM came to 44.4%.
With `COc1ccc(CNCCC(C)C)cc1OC` [Compound 9, N-(3,4-dimethoxybenzyl)-3-methylbutan-1-amine], the inhibition at 10 µM amounted to 1.9%.
